Source: patent US5385931A, “Sulfonamides derived from benzocyclic or benzoheterocyclic acids, their preparation and application in therapeutics” (Pierre Fabre Medicament, priority 1989, dated 1995)
Values after ≈ are worked out from the molar mass of the structure shown.

Tests used:
Solubility in water = format: physicochemical; conditions: for solubility: read-out: soluble in water to give a solution of
conventional mice = assay: Toxicology, intraperitoneal, mice; format: in vivo; conditions: 500 mg per kilo intraperitoneally
Description: The chemical compounds described above were subjected to toxicity checks. This study was carried out on conventional mice weighing from 20 to 22 g. The compounds of general formula I were administered intraperitoneally.

Solubility in DMSO = format: physicochemical
[1] = system: blood platelet aggregation induced by U.46619; assay: In vitro rabbit platelet aggregation induced by U.46619; format: cell-based, New Zealand rabbits; conditions: Oryctolagus cuniculus; rabbit platelet-rich plasma; U.46619 1.05 to 2.44 micromoles; pre-incubated 1 min at 37° C., pH 7.4
Description: (§1) Blood is taken from white male New Zealand rabbits which have not received any treatment capable of disrupting the platelet functions.
(§2) After having allowed the first drops to flow freely, the blood is collected in plastic tubes containing 3.8% (wt/v) trisodium citrate 5.5 H2 O, the citrate/blood ratio being 1 volume of citrate per 9 volumes of blood.
(§3) The blood platelet aggregation study is carried out starting from plasmas rich in platelets obtained by centrifuging the above blood samples at low speed. It is measured with the aid of a Mustard aggregometer at a wavelength of 609 nm with a stirring speed of 1,100 revolutions/min.
(§4) The products to be studied are dissolved in polyethylene glycol 300 and pre-incubated for 1 min at 37° C. under a volume of 10 microliters,in a mixture of 300 microliters of plasma rich in platelets and 90 microliters of Tyrode's solution without calcium, pH=7.4. (Corresponding controls are produced by pre-incubating the vehicle on its own instead of solutions of products to be studied).
(§5) The blood platelet aggregation is initiated by the addition either of U.46619 (final concentrations: 1.05 to 2.44 micromoles) or of arachidonic acid (final concentrations: 50 to 100 micromoles).
(§6) Starting from the parameter of the maximum percentage aggregation, the anti-aggregant activity of a product is calculated using the formula: [formula]
One curve: anti-aggregant activity=f (final concentration) is plotted for each product and the 50% inhibitory concentration determined from the graph.
In the case of aggregation with U.46619, the IC50 are given in Table I for compounds 1, 2, 3, 7 and 11 by way of non-limiting example: […]

[2] = system: blood platelet aggregation induced by arachidonic acid; assay: In vitro rabbit platelet aggregation induced by arachidonic acid; format: cell-based, New Zealand rabbits; conditions: arachidonic acid 50 to 100 micromoles
Description: as §1, §2, §3, §4, §5, §6
The percentage inhibition of the aggregation with arachidonic acid is given in Table II for compounds 2 and 3 by way of non-limiting examples: […]

[3] = system: platelet aggregation induced by U.46619; assay: Ex vivo inhibition of U.46619-induced platelet aggregation after oral administration in rabbits; parameters: species or system New Zealand rabbits; conditions: t=+90 min relative to control curve at t=0
Description: b) Ex vivo action: inhibition of anti-aggregant effects using U.46619 in rabbits.
Because of their powerful activity in vitro, the anti-aggregant effects ex vivo were studied in rabbits. The substances of general formula I, which are the subject of the present invention, are administered orally as a 1% suspension in carboxymethylcellulose to natural male New Zealand rabbits weighing 2.5 to 3 kg after going without nourishment for about 18 h. Blood samples were taken by cardiac puncture at time 0 and after 90 min. The aggregant U.46619 was used under the same conditions as above and the measurement of the aggregation was carried out using the same technique.
The results are expressed in Table III in terms of percentage inhibition of the maximum amplitude of the aggregation curve at t=+90 min relative to the control curve at t=0 and are given for compounds 2 and 3 by way of non-limiting example: […]

O=C(CNS(=O)(=O)c1ccc(Cl)cc1)c1ccc2c(c1)CCC(C(=O)O)O2 (racemic) [Compound 27, dl-Lysine 6-(parachlorobenzenesulphonamidoacetyl)-2-chromancarboxylate]
solubility (Solubility in water): 10000 µg/mL (≈ 24.4 mM)

O=C(CNS(=O)(=O)c1ccc(Cl)cc1)c1ccc2c(c1)CC(C(=O)O)C2 (racemic) [Compound 29, dl-Lysine 5-(parachlorobenzenesulphonamidoacetyl)-2-indanecarboxylate]
solubility (Solubility in water): 5000 µg/mL (≈ 12.7 mM)

O=C(CNS(=O)(=O)c1ccc(Cl)cc1)c1ccc2c(c1)CC(C(=O)O)O2 (stereo not drawn) [Compound 1, 5-(parachlorobenzenesulphonamidoacetyl)-2,3-dihydro-2-benzofurancarboxylicacid]
fatality (conventional mice): not a single fatality
toxicity (conventional mice): atoxic
soluble in DMSO to give a solution of (Solubility in DMSO): 10%
IC50 [1]: 600 nM

O=C(O)C1Cc2cc(CCNS(=O)(=O)c3ccc(Cl)cc3)ccc2O1 (stereo not drawn) [Compound 2, 5-(2-parachlorobenzenesulphonamidoethyl)-2,3-dihydro-2-benzofurancarboxylic acid]
inhibition at 100 µM ([2]; Oryctolagus cuniculus, Platelet, final concentration of compound 10^-4 M): -100%
inhibition at 10 µM ([2]; Oryctolagus cuniculus, Platelet, final concentration of compound 10^-5 M): -79%
% inhibition of platelet aggregation ([2]; final concentration of compound 5.10^-6 M): -31%
fatality (conventional mice): not a single fatality
toxicity (conventional mice): atoxic
soluble in DMSO to give a solution of (Solubility in DMSO): 10%
% inhibition of aggregation ([3]; 5 mg/kg orally): -64%
% inhibition of aggregation ([3]; 10 mg/kg orally): -98%
IC50 [1]: 500 nM

O=C(O)C1Cc2cc(CCNS(=O)(=O)c3ccc(Cl)cc3)ccc2O1 (stereo not drawn) [Compound 4, 5-(2-parachlorobenzenesulphonamidoethyl)-2,3-dihydro-2-benzofurancarboxylic acid monohydrate]
soluble in DMSO to give a solution of (Solubility in DMSO): 10%

CC(NS(=O)(=O)c1ccc(Cl)cc1)C(=O)c1ccc2c(c1)CC(C(=O)O)O2 (stereo not drawn) [Compound 5, 5-(α-methylparachlorobenzenesulphonamidoacetyl)-2,3-dihydro-2-benzofurancarboxylic acid]
soluble in DMSO to give a solution of (Solubility in DMSO): 10%

CC(NS(=O)(=O)c1ccc(Cl)cc1)C(O)c1ccc2c(c1)CC(C(=O)O)O2 (stereo not drawn) [Compound 6, 5-(2-Parachlorobenzenesulphonamido-1-hydroxypropyl)-2,3-dihydro-2-benzofurancarboxylic acid]
soluble in DMSO to give a solution of (Solubility in DMSO): 5%

O=C(O)C1CCc2cc(CCNS(=O)(=O)c3ccc(Cl)cc3)ccc2O1 (stereo not drawn) [Compound 7, 6-(2-Parachlorobenzenesulphonamidoethyl)-2-chromancarboxylic acid]
soluble in DMSO to give a solution of (Solubility in DMSO): 20%
IC50 [1]: 500 nM

O=C(O)C1Oc2ccc(CCNS(=O)(=O)c3ccc(Cl)cc3)cc2O1 (stereo not drawn) [Compound 8, 5-(2-Parachlorobenzenesulphonamidoethyl)-1,3-benzodioxole-2-carboxylic acid]
soluble in DMSO to give a solution of (Solubility in DMSO): 20%

O=C(O)C1Cc2ccc(CCNS(=O)(=O)c3ccc(Cl)cc3)cc2C1 (stereo not drawn) [Compound 9, 5-(2-parachlorobenzenesulphonamidoethyl)-2-indanecarboxylic acid]
soluble in DMSO to give a solution of (Solubility in DMSO): 10%

O=C(O)C1Cc2cc(CCNS(=O)(=O)c3ccc(Cl)cc3)ccc2S1 (stereo not drawn) [Compound 10, 5-(2-Parachlorobenzenesulphonamidoethyl)-2,3-dihydro-2-benzothiophenecarboxylic acid]
soluble in DMSO to give a solution of (Solubility in DMSO): 20%

O=C(O)c1cc2cc(CCNS(=O)(=O)c3ccc(Cl)cc3)ccc2o1 [Compound 11, 5-(2-Parachlorobenzenesulphonamidoethyl)-2-benzofurancarboxylic acid]
soluble in DMSO to give a solution of (Solubility in DMSO): 5%
IC50 [1]: 2000 nM

O=C(O)C1Cc2cc(C(CNS(=O)(=O)c3ccc(Cl)cc3)=NO)ccc2O1 (stereo not drawn) [Compound 13]
soluble in DMSO to give a solution of (Solubility in DMSO): 10%

CON=C(CNS(=O)(=O)c1ccc(Cl)cc1)c1ccc2c(c1)CC(C(=O)O)O2 (stereo not drawn) [Compound 14, 5-(2-parachlorobenzenesulphonamido-1-methoxyiminoethyl)-2,3-dihydro-2-benzofurancarboxylic acid]
soluble in DMSO to give a solution of (Solubility in DMSO): 10%

Cc1ccc(S(=O)(=O)N(C)CC(=O)c2ccc3c(c2)CC(C(=O)O)O3)cc1 (stereo not drawn) [Compound 16, 5-(N-methylparatoluenesulphonamidoacetyl)-2,3-dihydro-2-benzofurancarboxylic acid]
soluble in DMSO to give a solution of (Solubility in DMSO): 10%

O=C(O)C1Cc2cc(CCNS(=O)(=O)c3ccc(Cl)cc3)ccc2O1 (stereo not drawn) [Compound 17, Sodium 5-(2-parachlorobenzenesulphonamidoethyl)-2,3-dihydro-2-benzofurancarboxylate]
solubility (Solubility in water): 15000 µg/mL

CCOC(=O)C1CCc2cc(C(=O)CNS(=O)(=O)c3ccc(Cl)cc3)ccc2O1 (stereo not drawn) [Compound 20, ethyl 6-(parachlorobenzenesulphonamidoacetyl)-2-chromancarboxylate]
solubility in water (Solubility in water): insoluble in water
soluble in DMSO to give a solution of (Solubility in DMSO): 25%

O=C(CNS(=O)(=O)c1ccc(Cl)cc1)c1ccc2c(c1)CCC(C(=O)O)O2 (stereo not drawn) [Compound 21, 6-(parachlorobenzenesulphonamidoacetyl)-2-chromancarboxylic acid]
solubility in water (Solubility in water): insoluble in water
soluble in DMSO to give a solution of (Solubility in DMSO): 25%

O=C(CNS(=O)(=O)c1ccccc1)c1ccc2c(c1)CC(C(=O)O)O2 (stereo not drawn) [Compound 22, 5-(benzenesulphonamidoacetyl)-2,3-dihydro-2-benzofurancarboxylic acid]
solubility in water (Solubility in water): insoluble in water
soluble in DMSO to give a solution of (Solubility in DMSO): 25%

COc1ccc(S(=O)(=O)NCC(=O)c2ccc3c(c2)CC(C(=O)O)O3)cc1 (stereo not drawn) [Compound 23, 5-paramethoxybenzenesulphonamidoacetyl-2,3-dihydro-2-benzofurancarboxylic acid]
soluble in DMSO to give a solution of (Solubility in DMSO): 30%

O=C(CNS(=O)(=O)c1c(F)c(F)c(F)c(F)c1F)c1ccc2c(c1)CC(C(=O)O)O2 (stereo not drawn) [Compound 24, 5-Pentafluorobenzenesulphonamidoacetyl-2,3-dihydro-2-benzofurancarboxylic acid]
solubility in water (Solubility in water): insoluble in water
soluble in DMSO to give a solution of (Solubility in DMSO): 20%

O=C(CNS(=O)(=O)c1ccc(Cl)cc1)c1ccc2c(c1)CC(C(=O)O)O2 (stereo not drawn) [Compound 25, (dl)-Lysine 5-parachlorobenzenesulphonamidoacetyl-2,3-dihydro-2-benzofurancarboxylate trihydrate]
solubility (Solubility in water): 10000 µg/mL

O=C(O)C1CCc2cc(CCNS(=O)(=O)c3ccc(Cl)cc3)ccc2O1 (stereo not drawn) [Compound 26, (dl)-Lysine 6-(2-parachlorobenzenesulphonamidoethyl)-2-chromancarboxylate]
solubility (Solubility in water): 10000 µg/mL (≈ 25.3 mM)

O=C(CNS(=O)(=O)c1ccc(Cl)cc1)c1ccc2c(c1)CC(C(=O)O)C2 (stereo not drawn) [Compound 28, 5-(Parachlorobenzenesulphonamidoacetyl)-2-indanecarboxylic acid]
solubility in water (Solubility in water): insoluble in water
soluble in DMSO to give a solution of (Solubility in DMSO): 15%
